In brackets after ≈: the same amount, converted by molar mass. Several values for one entry are separate records, joined by “and”; a condition that tells them apart may be missing. Identical values can stand only once. Entries after “also recorded” stand apart in the source; their conditions may differ. Like-named read-outs stand apart in the source and are kept apart here.
Key:
[1] = target: T1, genotype 1b HCV NS5A (Hepatitis C virus genotype 1b, UniProt Q9WMX2, S2204I); assay: NS5A inhibitor binding assay; details: 1 μM, genotype 1b replicon cells, about 18 h, streptavidin agarose beads, immunoblot
T1 sequence (Q9WMX2 1973-2419 S2204I limits assumed): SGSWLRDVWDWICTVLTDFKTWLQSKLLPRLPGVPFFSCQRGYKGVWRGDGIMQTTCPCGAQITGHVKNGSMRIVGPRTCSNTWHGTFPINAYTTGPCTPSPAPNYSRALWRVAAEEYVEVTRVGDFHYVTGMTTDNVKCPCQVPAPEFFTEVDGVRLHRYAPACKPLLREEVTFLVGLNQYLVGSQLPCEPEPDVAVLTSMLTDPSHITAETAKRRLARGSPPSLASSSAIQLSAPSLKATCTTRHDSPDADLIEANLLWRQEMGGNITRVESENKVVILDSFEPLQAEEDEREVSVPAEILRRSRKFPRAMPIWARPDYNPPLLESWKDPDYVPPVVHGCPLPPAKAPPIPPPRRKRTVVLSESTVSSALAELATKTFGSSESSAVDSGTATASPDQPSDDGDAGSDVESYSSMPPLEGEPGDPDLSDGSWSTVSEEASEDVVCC

[2] = system: HCV replicon; assay: HCV replicon inhibitor combination studies; assay type: cell-based, hepatitis C virus; details: overall
[3] = system: HCV genotype 1a replicon (NS5A variants); assay: Transient replication assay, genotype 1a wild type and resistant variants; assay type: cell-based; details: Hepatitis C virus, GETYPE1A, most resistant 1a variant, L31V
[4] = system: BVDV replicon; assay: BVDV replicon; assay type: cell-based, bovine viral diarrhoea virus; details: Bovine viral diarrhea virus isolates and strains, Huh-7, in Bos taurus
[5] = system: genotype 1a replicon cells; assay: HCV replicon combination study with NS3 inhibitor in genotype 1a replicon cells; assay type: cell-based, hepatitis C virus; details: ITMN-191, overall
[6] = system: HCV replicons of genotypes 1a, 1b, 2a, 3a, 4a and 5a; assay: HCV replicons, all genotypes tested; assay type: cell-based; details: Hepatitis C virus, read-out: EC50 values, all genotypes tested
[7] = system: HCV genotype 1b; assay type: in vivo, human; details: for mean reduction in HCV viral load / range of reduction in HCV viral load: genotype 1b subjects, 24 h
[8] = system: Infectious BVDV; assay: BVDV cell protection assay; assay type: cell-based, bovine viral diarrhoea virus; details: Bovine viral diarrhea virus isolates and strains, MDBK, in Bos taurus
[9] = Preclinical pharmacokinetics; assay type: in vivo, four preclinical species
[10] = system: genotype 1b replicon; assay: Genotype 1b replicon assay with 40% human serum; assay type: cell-based; details: Hepatitis C virus, GETYPE1B, read-out: EC90 (protein-binding-adjusted)
[11] = system: HCV genotype 1a; assay type: in vivo, human; details: genotype 1a subjects, 24 h
[12] = system: HCV genotype 1; assay: Single ascending-dose study in HCV-infected subjects: plasma HCV RNA; assay type: in vivo, human
[13] = Single ascending-dose study in healthy, non-HCV-infected subjects; assay type: in vivo, human
[14] = Cytotoxicity in Huh-7 cells; assay type: cell-based; details: human, Huh-7 cells (liver)
[15] = system: panel of 10 RNA and DNA viruses; assay: organism not typed; assay type: cell-based
[16] = system: genotype 1a replicon; assay: Genotype 1a replicon assay with 40% human serum; assay type: cell-based; details: Hepatitis C virus, GETYPE1A, read-out: EC90 (protein-binding-adjusted)
[17] = Battery of in vitro receptor binding and enzymatic assays; details: assessment of promiscuity
[18] = target: HCV NS3 (Hepatitis C virus genotype 1b, UniProt Q9WMX2); assay: Biotin/streptavidin pull-down, immunoblot for NS3; assay type: binding; details: genotype 1b replicon cells
[19] = system: Y93H replicon; assay: Y93H replicon assay; assay type: cell-based; details: Hepatitis C virus
[20] = target: T2, BVDV NS5A (Bovine viral diarrhea virus, UniProt P19711); assay: Biotin/streptavidin pull-down in BVDV replicons; assay type: binding, bovine viral diarrhoea virus; details: replicons expressing BVDV RNA
T2 sequence (P19711 2774-3269 limits assumed): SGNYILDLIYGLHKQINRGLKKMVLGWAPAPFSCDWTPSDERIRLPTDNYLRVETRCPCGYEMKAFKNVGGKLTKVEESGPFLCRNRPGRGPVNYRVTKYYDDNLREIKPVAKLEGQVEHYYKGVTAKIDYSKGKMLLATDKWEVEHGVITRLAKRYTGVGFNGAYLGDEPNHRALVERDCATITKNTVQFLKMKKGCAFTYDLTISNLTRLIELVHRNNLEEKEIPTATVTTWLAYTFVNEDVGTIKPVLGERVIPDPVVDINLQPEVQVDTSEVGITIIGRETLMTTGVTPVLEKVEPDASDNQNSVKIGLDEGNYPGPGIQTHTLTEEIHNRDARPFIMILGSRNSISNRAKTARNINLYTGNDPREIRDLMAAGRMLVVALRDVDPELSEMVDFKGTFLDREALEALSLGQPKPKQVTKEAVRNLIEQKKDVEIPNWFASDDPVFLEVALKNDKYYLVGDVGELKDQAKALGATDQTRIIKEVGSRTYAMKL

[21] = target: HCV NS5B (Hepatitis C virus genotype 1b, UniProt Q9WMX2); assay: Biotin/streptavidin pull-down, immunoblot for NS5B; assay type: binding; details: genotype 1b replicon cells
[22] = system: HCV replicon genotype 1b, Con1; assay: HCV genotype 1b; assay type: cell-based; details: Hepatitis C virus, GETYPE1B, read-out: EC50 (subgenomic viral RNA replication)
[23] = 1 mg single dose, 24 h after administration

## O=C1N[C@H]2[C@H](CS[C@H]2CCCCC(=O)N2CCC[C@@H]2C(=O)Nc2ccc(/C=C/c3ccc(NC(=O)[C@H]4CCCN4C(=O)Cc4ccccc4)cc3)cc2)N1 [Compound 2]
[1]
  Binding to HCV NS5A (pull-down): does not

## COC(=O)N[C@H](C(=O)N1CCC[C@H]1c1ncc(-c2ccc(-c3ccc(-c4cnc([C@@H]5CCCN5C(=O)[C@@H](NC(=O)OC)C(C)C)[nH]4)cc3)cc2)[nH]1)C(C)C [BMS-790052]
[2]
  Combination effect with Interferon-α2β (intron A): Synergistic
  Combination effect with nucleoside NS5B polymerase inhibitor NM-107: Additive/synergistic
[2]; palm site II allosteric inhibitor
  Combination effect with non-nucleoside NS5B polymerase inhibitor: Additive/synergistic
[3]
  EC50: ~0.02 µM
[4]
  EC50: 9 µM
[5]
  Combination effect with NS3 protease inhibitor: Additive/synergistic
[6]
  EC50: 0.009 to 0.146 nM
[7]; 100 mg single dose, two individual subjects with genotype 1b
  HCV RNA measurement at hour 144: less than 25 IU ml^-1 and 35 IU ml^-1
[7]; 10 mg
  mean reduction in HCV viral load: 3.6 log10
  range of reduction in HCV viral load: 3.1–4.0 log10
[7]; 100 mg
  mean reduction in HCV viral load: 3.1 log10
  range of reduction in HCV viral load: 2.7–3.4 log10
[8]
  EC50: 12 µM
HCV-infected subjects
  Headache (most frequent adverse event), subjects reporting: four
HCV-infected subjects, single oral doses up to 100 mg
  Safety and tolerability: safe and well tolerated
both, human, plasma, po
  half-life: 10 to 14 h
[9]; four preclinical species
  Oral bioavailability: orally bioavailable
[9]; preclinical species
  Liver distribution: distributes effectively to the liver
[10]
  EC90: 0.04 ng/mL (≈ 0.0541 nM)
[11]; 1 mg
  mean reduction in HCV viral load: 1.8 log10
  range of reduction in HCV viral load: 0.2–3.0 log10
[11]; 10 mg
  mean reduction in HCV viral load: 2.9 log10
  range of reduction in HCV viral load: 2.9–3.0 log10
[11]; 100 mg
  mean reduction in HCV viral load: 3.6 log10
  range of reduction in HCV viral load: 3.5–3.6 log10
[12]; [23]
  mean reduction in HCV viral load: 1.8 log10
  range of reduction in HCV viral load: 0.2–3.0 log10
[12]; 100 mg single dose
  mean maximal HCV RNA decline: 3.6 log10
  range of maximal HCV RNA decline: 3.0–4.1 log10
[13]; all healthy subjects, versus EC90 for genotypes 1a and 1b
  Drug concentrations at and beyond 24 h post-dose: greater than the protein-binding-adjusted EC90
[13]; healthy subjects, 1 to 200 mg oral solution
  Exposure versus dose: dose-proportional exposures
[13]; healthy subjects, oral solution
  Absorption after oral administration: readily absorbed
[13]; healthy subjects, single oral doses up to 200 mg
  Safety and tolerability: safe and well tolerated
[14]
  CC50: 17 ± 1 µM
[15]
  EC50: > 10 µM
[16]
  EC90: 0.28 ng/mL (≈ 0.379 nM)
[17]
  Effects in battery of in vitro receptor binding and enzymatic assays: no significant effects

## O=C1N[C@H]2[C@H](CS[C@H]2CCCCC(=O)N2CCC[C@H]2C(=O)Nc2ccc(/C=C/c3ccc(NC(=O)[C@@H]4CCCN4C(=O)Cc4ccccc4)cc3)cc2)N1 [Compound 1]
[18]
  NS3 in pull-down: not detected
[19]
  EC50: > 10 µM
[20]
  Binding to BVDV NS5A (pull-down): failed to bind
[1]
  Binding to HCV NS5A (pull-down): pulled down efficiently; also recorded: binds
[21]
  NS5B in pull-down: not detected
[22]
  EC50: 0.033 µM

— PMC7094952 (Nature, 2010)
